Our source for the IC50 and inhibition in vivo values is US5049559A, “Thieno-triazolo-diazepine derivatives useful as anti-ischemic agents” (priority 1989, dated 1991).

For test [1], the system named is platelet aggregation induced by PAF. Nature of the test: Inhibition of platelet aggregation induced by PAF. In kind it is cell-based. To be noted: Oryctolagus cuniculus, male New Zealand rabbits, Table I. Here is the method:
1) Inhibition of platelet aggregation induced by PAF
This experimentation was conducted according to the method of R. KINLOUGH. RATHBONE, J. P. CAZENAVE, M. PACKHAM and F. MUSTARD, Lab. Invest. 48, 98, 1980. In this test, New Zealand rabbits were used (male New Zealand rabbits of an average weight of 5 kg).
The determinations are made on a chrono-log Coultronics aggregometer, at […] coupled with a graphic recorder; the results of these determinations (in molecular concentration) are reported on the table I on the central column.

Test [2] can be described thus: Global ischemia on gerbils. In kind it is in vivo. The settings on record: Meriones unguiculatus, 168 h, carotides clamped 10 minutes, hippocampes one week later, 3H-PK 11195, percentage of protection compared to control. The method, then:
3) Global ischemia on gerbils For this test, males gerbils were anaesthetized with brietal at the doses of 35 mg/kg IP; thereafter, both carotides were clamped for 10 minutes, then the clamping was released. Treated animals received each 10 mg/kg of the compounds of one of the examples. One week later, the animals were killed and both hippocampes were taken, weighed and frozen at -80° C. After crushing with 1 ml of TRIS-HCl pH 7.4 for 30 seconds, aliquots of each 50 μl of this preparation were incubed in each 1 ml of TRIS-HCl buffer containing ^3 H-PK 11195 at 2 nM (90 Ci/mmole, NENE, Germany) for 1 hour at 25° C. For each preparation, 3 determinations were made. The density of omega 3 sites (marked by the specific ^3 H-PK 11195 marker) are expressed in f-moles of PK 11195/mg of fresh tissues and converted in percentage of protection compared to control.

Test [3] has as its target benzodiazepine receptors. Nature of the test: Inhibition of the binding to benzodiazepine receptors. The settings on record: rat brains, 1 hour 30 minutes at 4° C., tracers 3H-RO-15-1788 and 3H-RO-5-4864, Table I, read-out: BDZ receptors. The source says:
2) Inhibition of the binding to benzodiazepine receptors
The interest of the previous experimentation depends on the results obtained in this experimentation: as a compound of the invention has a benzodiazepine like structure, it is important to check whether the specific benzodiazepine activity would not appear at the dose where platelet aggregation was inhibited.
Therefore, this experimentation has been conducted according to the method of MOHLER H. and RICHARD J. G. Agonist and antagonist benzodiazepine receptor interaction in vitro, Nature, vol. 294, 763-765, 1981.
This experimentation was conducted on rat brains incubated 1 hour 30 minutes at 4° C. using ^3 H-RO-15-1788 and ^3 H-RO-5-4864 (NEN) as tracers and […] and RO-5-4864 as reference antagonists.
The results in molecular concentration are reported in the table I, on the right hand column.

In general, inhibition in vivo refers to the relative decrease from the control value, in per cent. Read a low inhibition in vivo as a weak effect.

In the case of `Cc1nnc2n1-c1sc3c(c1C(c1ccccc1Cl)=NC2)CCN(C(=S)CSc1ccc(C(C)(C)C)cc1)C3` [Example 18, 6-(2-chlorophenyl)-9-(4-t.butylphenylthiomethyl-thiocarbonyl)-7,8,9, 10-tetrahydro-1-methyl-4H-pyrido [4',3':4,5] thieno [3,2-f] 1,2,4-triazolo[4,3-a] 1,4-diazepine], the IC50 in test [1] came out at 23 nM; in test [3], 44100 nM. In addition, the inhibition in vivo at 10 mg/kg in test [2] came out at 12.6%.
For `Cc1nnc2n1-c1sc3c(c1C(c1ccccc1Cl)=NC2)CCN(C(=O)CSc1ccccc1C(F)(F)F)C3` [Example 19, 6-(2-chlorophenyl)-9-(2-trifluoromethylphenylthiomethylcarbonyl)-7,8,9, 10-tetrahydro-1-methyl-4H-pyrido [4',3':4,5] thieno [3,2-f] 1,2,4-triazolo[4,3-a] 1,4-diazepine] the same measures were 6.36 nM, 270 nM and 45.6%.
The corresponding values for `Cc1nnc2n1-c1sc3c(c1C(c1ccccc1Cl)=NC2)CCN(C(=S)CSc1ccccc1C(F)(F)F)C3` [Example 20, 6-(2-chlorophenyl)-9-(2-trifluoromethylphenylthiomethylthiocarbonyl)-7,8,9, 10-tetrahydro-1-methyl-4H-pyrido [4',3':4,5] thieno [3,2-f] 1,2,4-triazolo [4,3-a] 1,4-diazepine] are 146 nM, 1600 nM and 32.7%.
Turning to `Cc1nnc2n1-c1sc3c(c1C(c1ccccc1Cl)=NC2)CCN(C(=O)CSc1cccc(C(F)(F)F)c1)C3` [Example 21, 6-(2-chlorophenyl)-9-(3-trifluoromethylphenylthiomethylcarbonyl)-7,8,9, 10-tetrahydro-1-methyl-4H-pyrido [4',3':4,5] thieno [3,2-f] 1,2,4-triazolo[4,3-a] 1,4-diazepine], the IC50 in test [1] was 8.66 nM; in test [3], 810 nM. Also, in test [2], the inhibition in vivo at 10 mg/kg amounted to 34.1%.
For `Cc1nnc2n1-c1sc3c(c1C(c1ccccc1Cl)=NC2)CCN(C(=S)CSc1cccc(C(F)(F)F)c1)C3` [Example 22, 6-(2-chlorophenyl)-9-(3-trifluoromethylphenylthiomethylthiocarbonyl)-7,8,9, 10-tetrahydro-1-methyl-4H-pyrido [4',3':4,5] thieno [3,2-f] 1,2,4-triazolo [4,3-a] 1,4-diazepine] the same measures were 8.18 nM, 610 nM and 48.1%.
The corresponding values for `Cc1nnc2n1-c1sc3c(c1C(c1ccccc1Cl)=NC2)CCN(C(=O)CSc1ccc(C(F)(F)F)cc1)C3` [Example 23, 6-(2-chlorophenyl)-9-(4-trifluoromethylphenylthiomethylcarbonyl)-7,8,9, 10-tetrahydro-1-methyl-4H-pyrido [4',3':4,5] thieno [3,2-f] 1,2,4-triazolo[4,3-a] 1,4-diazepine] are 12.4 nM, 1200 nM and 37.5%.
Turning to `Cc1nnc2n1-c1sc3c(c1C(c1ccccc1Cl)=NC2)CCN(C(=S)CSc1ccc(C(F)(F)F)cc1)C3` [Example 24, 6-(2-chlorophenyl)-9-(4-trifluoromethylphenylthiomethylthiocarbonyl)-7,8,9, 10-tetrahydro-1-methyl-4H-pyrido [4',3':4,5] thieno [3,2-f] 1,2,4-triazolo [4,3-a] 1,4-diazepine], the IC50 in test [1] is 32.7 nM; in test [3] it was 3300 nM. In addition, testing at 10 mg/kg in test [2] gave an inhibition in vivo of 38.7%.
Regarding `Cc1nnc2n1-c1sc3c(c1C(c1ccccc1Cl)=NC2)CCN(C(=O)CSc1ccc(F)cc1)C3` [Example 25, 6-(2-chlorophenyl)-9-(4-fluorophenylthiomethyl-carbonyl)-7,8,9, 10-tetrahydro-1-methyl-4H-pyrido [4',3':4,5] thieno [3,2-f] 1,2,4-triazolo[4,3-a] 1,4-diazepine], the IC50 came out at 11.3 nM in test [1] and 630 nM in test [3]. In addition, at 10 mg/kg the inhibition in vivo in test [2] was 14.7%.
Regarding `Cc1nnc2n1-c1sc3c(c1C(c1ccccc1Cl)=NC2)CCN(C(=S)CSc1ccc(F)cc1)C3` [Example 26, 6-(2-chlorophenyl)-9-(4-fluorophenylthiomethyl-thiocarbonyl)-7,8,9, 10-tetrahydro-1-methyl-4H-pyrido [4',3':4,5] thieno [3,2-f] 1,2,4-triazolo[4,3-a] 1,4-diazepine], the IC50 came out at 6.56 nM in test [1] and 610 nM in test [3]. Also, testing at 10 mg/kg in test [2] gave an inhibition in vivo of 26.5%.
`Cc1nnc2n1-c1sc3c(c1C(c1ccccc1Cl)=NC2)CCN(C(=O)CSc1cccc(Cl)c1Cl)C3` [Example 27, 6-(2-chlorophenyl)-9-(2,3-dichlorophenylthiomethyl-carbonyl)-7,8,9, 10-tetrahydro-1-methyl-4H-pyrido [4',3':4,5] thieno [3,2-f] 1,2,4-triazolo[4,3-a] 1,4-diazepine]: the IC50 in test [1] came to 8.45 nM; in test [3], 48000 nM. This molecule had an inhibition in vivo at 10 mg/kg in test [2] of 33.3%.
For `Cc1nnc2n1-c1sc3c(c1C(c1ccccc1Cl)=NC2)CCN(C(=S)CSc1cccc(Cl)c1Cl)C3` [Example 28, 6-(2-chlorophenyl)-9-(2,3-dichlorophenylthiomethyl-thiocarbonyl)-7,8,9, 10-tetrahydro-1-methyl-4H-pyrido [4',3':4,5] thieno [3,2-f] 1,2,4-triazolo[4,3-a] 1,4-diazepine], the IC50 in test [1] was found to be 9.06 nM; in test [3], 4300 nM. This molecule gave an inhibition in vivo at 10 mg/kg in test [2] of 35.3%.
On to `Cc1nnc2n1-c1sc3c(c1C(c1ccccc1Cl)=NC2)CCN(C(=O)CSc1ccc(Oc2ccccc2)cc1)C3` [Example 29, 6-(2-chlorophenyl)-9-(4-phenoxyphenylthiomethyl-carbonyl) 7,8,9, 10-tetrahydro-1-methyl-4H-pyrido [4',3':4,5] thieno [3,2-f] 1,2,4-triazolo[4,3-a] 1,4-diazepine], for which the IC50 amounted to 9.05 nM in test [1] and 1230 nM in test [3]. 10 mg/kg produced 51.6% inhibition in vivo in test [2].
For `Cc1nnc2n1-c1sc3c(c1C(c1ccccc1Cl)=NC2)CCN(C(=S)CSc1ccc(Oc2ccccc2)cc1)C3` [Example 30, 6-(2-chlorophenyl)-9-(4-phenoxyphenylthiomethyl-thiocarbonyl)-7,8,9, 10-tetrahydro-1-methyl-4H-pyrido [4',3':4,5] thieno [3,2-f] 1,2,4-triazolo[4,3-a] 1,4-diazepine] the same measures were 104 nM, 360 nM and 16.1%.
For `Cc1nnc2n1-c1sc3c(c1C(c1ccccc1Cl)=NC2)CCN(C(=O)CSc1ccco1)C3` [Example 31, 6-(2-chlorophenyl)-9-(2-furyl-thiomethyl-carbonyl)-7,8,9, 10-tetrahydro-1-methyl-4H-pyrido [4',3':4,5] thieno [3,2-f] 1,2,4-triazolo[4,3-a] 1,4-diazepine] the same measures were 7.1 nM, 230 nM and 36.2%.
Take `Cc1nnc2n1-c1sc3c(c1C(c1ccccc1Cl)=NC2)CCN(C(=S)CSc1ccco1)C3` [Example 32, 6-(2-chlorophenyl)-9-(2-furyl-thiomethyl-thiocarbonyl)-7,8,9, 10-tetrahydro-1-methyl-4H-pyrido [4',3':4,5] thieno [3,2-f] 1,2,4-triazolo[4,3-a] 1,4-diazepine]: the IC50 in test [1] was 8.75 nM; in test [3], 1300 nM. Moreover, the inhibition in vivo at 10 mg/kg in test [2] was determined as 30.3%.
Consider `Cc1nnc2n1-c1sc3c(c1C(c1ccccc1Cl)=NC2)CCN(C(=O)CSc1cccs1)C3` [Example 33, 6-(2-chlorophenyl)-9-(2-thienyl-thiomethyl-carbonyl)-7,8,9, 10-tetrahydro-1-methyl-4H-pyrido [4',3':4,5] thieno [3,2-f] 1,2,4-triazolo[4,3-a] 1,4-diazepine], for which the IC50 is 41.2 nM in test [1] and 5700 nM in test [3]. Besides, testing at 10 mg/kg in test [2] gave an inhibition in vivo of 24.8%.
For `Cc1nnc2n1-c1sc3c(c1C(c1ccccc1Cl)=NC2)CCN(C(=S)CSc1cccs1)C3` [Example 34, 6-(2-chlorophenyl)-9-(2-thienyl-thiomethyl-thiocarbonyl)-7,8,9, 10-tetrahydro-1-methyl-4H-pyrido [4',3':4,5] thieno [3,2-f] 1,2,4-triazolo[4,3-a] 1,4-diazepine] the same measures were 128 nM, 720 nM and 34.7%.
